# Measured values reported in ChEMBL document CHEMBL1201862, “PubChem BioAssay data set” (2004).
# The source made the active and inactive calls.
# Key:
# [1] = molecular target: T1, Apoptotic protease-activating factor 1 (Homo sapiens, UniProt O14727); assay type: functional
# T1 sequence (O14727 whole entry): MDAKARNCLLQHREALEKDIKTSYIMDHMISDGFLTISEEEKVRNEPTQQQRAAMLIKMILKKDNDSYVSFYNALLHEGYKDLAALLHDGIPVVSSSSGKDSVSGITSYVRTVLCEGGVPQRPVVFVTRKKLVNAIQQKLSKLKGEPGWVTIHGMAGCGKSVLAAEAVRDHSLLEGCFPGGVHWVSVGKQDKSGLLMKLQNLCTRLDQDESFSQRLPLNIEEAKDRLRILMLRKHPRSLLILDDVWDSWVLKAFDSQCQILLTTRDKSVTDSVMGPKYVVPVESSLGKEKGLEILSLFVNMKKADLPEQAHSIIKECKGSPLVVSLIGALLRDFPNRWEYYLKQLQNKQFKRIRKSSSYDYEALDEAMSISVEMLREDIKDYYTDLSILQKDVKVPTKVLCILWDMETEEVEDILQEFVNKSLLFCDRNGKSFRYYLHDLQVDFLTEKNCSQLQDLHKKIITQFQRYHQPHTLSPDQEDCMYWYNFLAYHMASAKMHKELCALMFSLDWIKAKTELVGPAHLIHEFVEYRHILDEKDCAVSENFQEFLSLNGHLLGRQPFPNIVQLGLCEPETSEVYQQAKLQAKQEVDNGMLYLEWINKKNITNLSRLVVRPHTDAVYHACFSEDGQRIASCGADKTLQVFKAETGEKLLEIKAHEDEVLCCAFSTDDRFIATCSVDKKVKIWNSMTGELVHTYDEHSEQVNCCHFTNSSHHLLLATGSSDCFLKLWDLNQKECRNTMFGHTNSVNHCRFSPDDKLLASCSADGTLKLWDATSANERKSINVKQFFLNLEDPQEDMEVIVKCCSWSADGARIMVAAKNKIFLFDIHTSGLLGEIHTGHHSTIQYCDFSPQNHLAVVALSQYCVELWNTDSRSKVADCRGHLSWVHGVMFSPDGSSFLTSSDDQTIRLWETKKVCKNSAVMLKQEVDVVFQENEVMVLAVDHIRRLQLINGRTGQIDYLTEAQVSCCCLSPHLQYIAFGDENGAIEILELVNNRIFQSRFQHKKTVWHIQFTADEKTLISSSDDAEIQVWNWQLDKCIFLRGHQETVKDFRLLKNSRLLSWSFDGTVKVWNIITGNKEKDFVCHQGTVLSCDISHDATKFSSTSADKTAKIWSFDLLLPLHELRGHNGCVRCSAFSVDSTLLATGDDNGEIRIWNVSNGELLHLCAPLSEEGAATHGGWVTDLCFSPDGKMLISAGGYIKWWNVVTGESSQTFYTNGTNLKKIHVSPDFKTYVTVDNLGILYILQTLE
# [2] = molecular target: 1-phosphatidylinositol 4,5-bisphosphate phosphodiesterase gamma-1 (Homo sapiens, UniProt P19174); experiment: Counterscreen for inhibitors of phospholipase C isozymes (PLC-B3): Fluorescence-based biochemical high throughput dose response assay to identify inhibitors of phospholipase C isozymes (PLC-gamma1).
# [3] = molecular target: 1-phosphatidylinositol 4,5-bisphosphate phosphodiesterase beta-3 (Homo sapiens, UniProt Q01970); experiment: Fluorescence-based biochemical high throughput dose response assay to identify inhibitors of phospholipase C isozymes (PLC-B3).
# [4] = viability loss in THP-1 monocytes – THP-1 cells, cytotoxicity control for Vif-APOBEC3G degradation inhibitor project, dose response (AID 1117359); assay type: functional; settings: THP-1
# Beta-galactosidase = Beta-galactosidase (Escherichia coli, UniProt Q8VNN2); experiment: detection-enzyme interference by beta-gal modulators – biochemical, E. coli enzyme, set 3, artefact control for CCR6 antagonist project, dose response (AID 504712); assay type: functional
# [5] = molecular target: C-C chemokine receptor type 6 (Homo sapiens, UniProt P51684); experiment: antagonism of CCR6 beta-arrestin recruitment – cell-based, luminescent beta-arrestin readout, dose response (AID 504728); assay type: functional
# Caspase-3 = molecular target: T2, Caspase-3 (Homo sapiens, UniProt P42574); experiment: activation of caspase-3 zymogen – biochemical, absorbance, dose response (AID 489014)
# T2 sequence (P42574 whole entry): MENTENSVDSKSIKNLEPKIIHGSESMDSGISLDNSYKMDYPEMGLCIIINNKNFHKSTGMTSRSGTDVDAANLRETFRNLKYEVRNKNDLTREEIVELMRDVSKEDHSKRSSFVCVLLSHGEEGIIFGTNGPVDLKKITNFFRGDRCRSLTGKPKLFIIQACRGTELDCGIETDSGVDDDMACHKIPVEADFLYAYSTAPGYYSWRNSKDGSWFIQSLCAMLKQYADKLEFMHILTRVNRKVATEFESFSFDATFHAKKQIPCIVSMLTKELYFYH
# Caspase-7 = Caspase-7 (Homo sapiens, UniProt P55210); experiment: activation of caspase-7 zymogen – biochemical, absorbance, counter-screen for procaspase-3 activator project, dose response (AID 489013)
# Troponin, cardiac muscle = Troponin, cardiac muscle (Homo sapiens, UniProt P19429+P45379+P63316); experiment: compounds desensitizing RTF to calcium – biochemical, fluorescence, cardiac regulated thin filaments, triplicate IC50, dose response (AID 504742); assay type: protein-complex assay
# [6] = molecular target: T3, Histone-lysine N-methyltransferase NSD2 (Homo sapiens, UniProt O96028); assay type: biochemical
# T3 sequence (O96028 whole entry): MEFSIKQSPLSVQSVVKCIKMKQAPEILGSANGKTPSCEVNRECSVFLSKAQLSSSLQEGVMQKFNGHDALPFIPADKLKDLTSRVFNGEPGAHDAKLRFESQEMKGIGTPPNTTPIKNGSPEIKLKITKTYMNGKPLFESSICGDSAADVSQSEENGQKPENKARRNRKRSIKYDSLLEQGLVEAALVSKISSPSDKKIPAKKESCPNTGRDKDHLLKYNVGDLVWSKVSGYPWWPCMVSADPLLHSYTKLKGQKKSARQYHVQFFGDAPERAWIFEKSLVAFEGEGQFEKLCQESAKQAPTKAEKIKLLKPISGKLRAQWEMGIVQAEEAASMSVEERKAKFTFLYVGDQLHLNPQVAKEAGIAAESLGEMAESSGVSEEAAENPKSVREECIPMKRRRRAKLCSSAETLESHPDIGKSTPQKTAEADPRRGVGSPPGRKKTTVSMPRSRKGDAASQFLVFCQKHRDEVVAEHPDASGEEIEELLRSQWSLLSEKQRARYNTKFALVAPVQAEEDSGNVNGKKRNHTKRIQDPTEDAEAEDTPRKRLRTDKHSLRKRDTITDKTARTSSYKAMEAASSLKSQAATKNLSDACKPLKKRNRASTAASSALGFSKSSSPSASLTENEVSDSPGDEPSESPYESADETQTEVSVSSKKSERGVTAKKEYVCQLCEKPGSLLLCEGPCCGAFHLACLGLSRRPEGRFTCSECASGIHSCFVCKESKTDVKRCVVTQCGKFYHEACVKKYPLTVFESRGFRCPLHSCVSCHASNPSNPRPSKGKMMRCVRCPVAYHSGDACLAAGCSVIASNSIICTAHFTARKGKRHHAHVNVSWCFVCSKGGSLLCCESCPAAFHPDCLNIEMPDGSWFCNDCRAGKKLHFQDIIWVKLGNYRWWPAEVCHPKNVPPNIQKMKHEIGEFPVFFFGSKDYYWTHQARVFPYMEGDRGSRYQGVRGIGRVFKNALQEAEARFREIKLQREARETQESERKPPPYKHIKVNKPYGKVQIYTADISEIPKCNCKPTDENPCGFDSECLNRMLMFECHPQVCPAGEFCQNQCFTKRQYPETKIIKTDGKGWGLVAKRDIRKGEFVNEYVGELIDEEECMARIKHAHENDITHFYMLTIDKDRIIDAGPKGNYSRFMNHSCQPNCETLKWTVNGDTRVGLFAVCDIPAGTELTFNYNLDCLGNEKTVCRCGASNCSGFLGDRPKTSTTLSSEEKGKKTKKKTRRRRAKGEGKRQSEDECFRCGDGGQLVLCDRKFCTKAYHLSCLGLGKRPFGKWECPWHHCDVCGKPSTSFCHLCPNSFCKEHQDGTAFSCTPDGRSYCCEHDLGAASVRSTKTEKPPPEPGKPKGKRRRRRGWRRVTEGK
# [7] = molecular target: T4, Kappa-type opioid receptor (Homo sapiens, UniProt P41145); experiment: SAR analysis of Antagonists of the Kappa Opioid Receptor (KOR) using an Image-Based Assay - Set 4. [Related pubchem assays (depositor defined):AID1777, AID1785]; assay type: functional
# Mu-type opioid receptor = Mu-type opioid receptor (Homo sapiens, UniProt P35372); experiment: SAR Analysis of Antagonists of the MOR Receptor using an Image-Based Assay - Set 3. [Related pubchem assays (depositor defined):AID1777, AID1785, AID1786, AID1966, AID2133, AID2136, AID2284, AID2285, AID2420]; assay type: functional
# [8] = molecular target: Delta-type opioid receptor (Homo sapiens, UniProt P41143); experiment: SAR Analysis of Antagonists of the DOR Receptor using an Image-Based Assay - Set 3. [Related pubchem assays (depositor defined):AID1777, AID1785]; assay type: functional;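 also: U2OS cells expressing DOR1 and beta-arrestin GFP stimulated with 100 nM SNC80; imaging of GFP-tagged beta-arrestin moving into spots after receptor activation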
# [9] = molecular target: T4, Kappa-type opioid receptor; experiment: SAR analysis of small molecule antagonists of the kappa opioid receptor via a luminescent beta-arrestin assay - Set 4. [Related pubchem assays (depositor defined):AID1777, AID1778, AID1785, AID1786, AID1966, AID2133, AID2136, AID2285]; assay type: functional
# [10] = molecular target: T4, Kappa-type opioid receptor; experiment: SAR analysis of small molecule antagonists of the kappa opioid receptor via a luminescent beta-arrestin assay - Set 6. [Related pubchem assays (depositor defined):AID1777, AID1778, AID1785, AID1786, AID1966, AID2133, AID2136, AID2285]; assay type: functional
# [11] = molecular target: DNA dC->dU-editing enzyme APOBEC-3A (Homo sapiens, UniProt P31941); experiment: A3A deaminase inhibition for selectivity – biochemical, dose response (AID 504722); assay type: functional
# [12] = system: Streptococcus sp. 'group A'; experiment: Streptococcus pyogenes SK(-)GAS viability under kanamycin – luminescence, BacTiterGlo, confirmation, counter-screen for streptokinase expression inhibitor project, dose response (AID 1900); assay type: functional, organism-based
# Streptococcus = experiment: GAS UMAA2166 growth inhibition – luminescence, BacTiterGlo, counter-screen for streptokinase expression inhibitor project, dose response (AID 1915); assay type: functional, organism-based;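 also: potency for reduction of bacterial viability or growth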
# [13] = molecular target: DNA dC->dU-editing enzyme APOBEC-3G (Homo sapiens, UniProt Q9HC16); experiment: Dose Response confirmation of small molecule APOBEC3G DNA Deaminase Inhibitors via a fluorescence-based single-stranded DNA deaminase assay. [Related pubchem assays (depositor defined):AID493012, AID493028]; assay type: functional
# Streptokinase A = molecular target: T5, Streptokinase A (Streptococcus pyogenes serotype M1, UniProt P10520); experiment: viability-normalized secreted streptokinase activity reduction – plasminogen activation absorbance, OD405, dose response (AID 1914); assay type: functional, Streptococcus pyogenes M1 GAS;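 also: secreted streptokinase activity via plasminogen activation per viability signal from cell pellet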
# T5 sequence (P10520 whole entry): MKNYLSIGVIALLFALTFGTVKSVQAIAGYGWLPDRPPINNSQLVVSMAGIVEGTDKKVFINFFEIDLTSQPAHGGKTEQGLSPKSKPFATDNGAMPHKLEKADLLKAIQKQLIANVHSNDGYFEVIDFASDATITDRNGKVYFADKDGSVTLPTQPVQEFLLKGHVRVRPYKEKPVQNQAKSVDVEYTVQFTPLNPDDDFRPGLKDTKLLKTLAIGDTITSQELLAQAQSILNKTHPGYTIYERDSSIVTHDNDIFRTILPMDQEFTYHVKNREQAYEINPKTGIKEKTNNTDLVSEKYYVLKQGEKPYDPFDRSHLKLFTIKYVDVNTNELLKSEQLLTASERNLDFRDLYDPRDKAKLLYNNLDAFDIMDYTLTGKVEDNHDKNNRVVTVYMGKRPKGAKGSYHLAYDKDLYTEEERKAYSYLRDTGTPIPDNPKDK
# T4 sequence (P41145 whole entry): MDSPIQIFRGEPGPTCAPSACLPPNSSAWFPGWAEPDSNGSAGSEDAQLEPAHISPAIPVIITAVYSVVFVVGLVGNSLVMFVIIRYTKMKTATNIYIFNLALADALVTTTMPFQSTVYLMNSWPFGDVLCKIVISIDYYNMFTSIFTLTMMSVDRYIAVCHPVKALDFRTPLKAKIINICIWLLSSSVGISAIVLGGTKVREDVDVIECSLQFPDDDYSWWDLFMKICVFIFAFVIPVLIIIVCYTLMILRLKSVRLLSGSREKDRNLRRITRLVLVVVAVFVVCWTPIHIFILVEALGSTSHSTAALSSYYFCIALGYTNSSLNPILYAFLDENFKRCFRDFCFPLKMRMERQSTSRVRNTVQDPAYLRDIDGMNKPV
# Chain of Beta-galactosidase (Q8VNN2 whole entry): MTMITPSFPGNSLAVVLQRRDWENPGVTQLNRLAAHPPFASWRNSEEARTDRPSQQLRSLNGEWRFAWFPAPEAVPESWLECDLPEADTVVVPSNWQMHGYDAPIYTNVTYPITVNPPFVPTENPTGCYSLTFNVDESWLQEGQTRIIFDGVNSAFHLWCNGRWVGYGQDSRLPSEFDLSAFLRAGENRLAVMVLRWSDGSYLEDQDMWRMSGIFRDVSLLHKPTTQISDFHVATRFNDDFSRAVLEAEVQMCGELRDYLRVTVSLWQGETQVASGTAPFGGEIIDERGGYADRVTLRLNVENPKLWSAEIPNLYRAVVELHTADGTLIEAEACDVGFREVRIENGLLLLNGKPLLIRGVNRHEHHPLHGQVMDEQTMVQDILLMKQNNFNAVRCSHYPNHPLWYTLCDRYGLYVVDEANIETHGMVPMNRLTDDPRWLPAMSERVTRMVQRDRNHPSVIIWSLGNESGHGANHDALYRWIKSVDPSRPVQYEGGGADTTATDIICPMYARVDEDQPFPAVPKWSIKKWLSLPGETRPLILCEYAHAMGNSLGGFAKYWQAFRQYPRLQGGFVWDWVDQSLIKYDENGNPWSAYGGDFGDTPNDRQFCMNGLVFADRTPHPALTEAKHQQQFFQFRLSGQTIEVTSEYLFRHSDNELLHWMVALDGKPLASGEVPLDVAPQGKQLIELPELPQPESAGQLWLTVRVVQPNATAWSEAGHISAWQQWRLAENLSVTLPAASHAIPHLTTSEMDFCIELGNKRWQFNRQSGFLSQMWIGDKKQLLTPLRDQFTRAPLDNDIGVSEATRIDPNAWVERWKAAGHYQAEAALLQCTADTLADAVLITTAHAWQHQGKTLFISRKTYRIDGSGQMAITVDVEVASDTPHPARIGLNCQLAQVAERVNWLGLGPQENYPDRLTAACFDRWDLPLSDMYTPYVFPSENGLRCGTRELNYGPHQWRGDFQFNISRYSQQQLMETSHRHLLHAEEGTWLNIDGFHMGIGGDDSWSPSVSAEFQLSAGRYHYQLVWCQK
# Chain of C-C chemokine receptor type 6 (P51684 whole entry): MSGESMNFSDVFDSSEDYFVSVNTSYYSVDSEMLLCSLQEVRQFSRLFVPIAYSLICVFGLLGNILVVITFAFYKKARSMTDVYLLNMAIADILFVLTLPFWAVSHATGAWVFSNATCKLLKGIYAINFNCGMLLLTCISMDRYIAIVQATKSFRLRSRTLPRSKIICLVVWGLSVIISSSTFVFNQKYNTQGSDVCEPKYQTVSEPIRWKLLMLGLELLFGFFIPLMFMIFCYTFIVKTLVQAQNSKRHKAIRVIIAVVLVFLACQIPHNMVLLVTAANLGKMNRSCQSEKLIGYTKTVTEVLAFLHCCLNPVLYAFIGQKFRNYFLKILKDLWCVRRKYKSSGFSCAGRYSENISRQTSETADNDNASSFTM
# Chain of Mu-type opioid receptor (P35372 whole entry): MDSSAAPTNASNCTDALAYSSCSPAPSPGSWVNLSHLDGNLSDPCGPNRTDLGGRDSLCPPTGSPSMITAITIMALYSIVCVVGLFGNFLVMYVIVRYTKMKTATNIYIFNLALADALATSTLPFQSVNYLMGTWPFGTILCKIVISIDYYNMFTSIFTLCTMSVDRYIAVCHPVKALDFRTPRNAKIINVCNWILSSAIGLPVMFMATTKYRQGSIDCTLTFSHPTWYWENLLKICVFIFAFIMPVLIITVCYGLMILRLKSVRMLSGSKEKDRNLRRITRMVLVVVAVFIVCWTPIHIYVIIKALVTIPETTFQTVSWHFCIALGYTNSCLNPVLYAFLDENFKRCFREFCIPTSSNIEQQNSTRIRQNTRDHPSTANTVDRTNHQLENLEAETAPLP
# Chain of Delta-type opioid receptor (P41143 whole entry): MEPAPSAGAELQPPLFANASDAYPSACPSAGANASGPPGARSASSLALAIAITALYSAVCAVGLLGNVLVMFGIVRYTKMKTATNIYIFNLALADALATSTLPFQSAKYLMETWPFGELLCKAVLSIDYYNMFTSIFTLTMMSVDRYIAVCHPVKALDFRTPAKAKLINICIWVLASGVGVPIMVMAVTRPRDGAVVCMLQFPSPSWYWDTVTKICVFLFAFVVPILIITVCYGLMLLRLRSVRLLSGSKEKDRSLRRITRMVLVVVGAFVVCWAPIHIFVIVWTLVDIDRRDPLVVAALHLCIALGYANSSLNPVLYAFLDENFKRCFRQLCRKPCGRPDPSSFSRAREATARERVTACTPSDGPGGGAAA
# Chain of 1-phosphatidylinositol 4,5-bisphosphate phosphodiesterase gamma-1 (P19174 whole entry): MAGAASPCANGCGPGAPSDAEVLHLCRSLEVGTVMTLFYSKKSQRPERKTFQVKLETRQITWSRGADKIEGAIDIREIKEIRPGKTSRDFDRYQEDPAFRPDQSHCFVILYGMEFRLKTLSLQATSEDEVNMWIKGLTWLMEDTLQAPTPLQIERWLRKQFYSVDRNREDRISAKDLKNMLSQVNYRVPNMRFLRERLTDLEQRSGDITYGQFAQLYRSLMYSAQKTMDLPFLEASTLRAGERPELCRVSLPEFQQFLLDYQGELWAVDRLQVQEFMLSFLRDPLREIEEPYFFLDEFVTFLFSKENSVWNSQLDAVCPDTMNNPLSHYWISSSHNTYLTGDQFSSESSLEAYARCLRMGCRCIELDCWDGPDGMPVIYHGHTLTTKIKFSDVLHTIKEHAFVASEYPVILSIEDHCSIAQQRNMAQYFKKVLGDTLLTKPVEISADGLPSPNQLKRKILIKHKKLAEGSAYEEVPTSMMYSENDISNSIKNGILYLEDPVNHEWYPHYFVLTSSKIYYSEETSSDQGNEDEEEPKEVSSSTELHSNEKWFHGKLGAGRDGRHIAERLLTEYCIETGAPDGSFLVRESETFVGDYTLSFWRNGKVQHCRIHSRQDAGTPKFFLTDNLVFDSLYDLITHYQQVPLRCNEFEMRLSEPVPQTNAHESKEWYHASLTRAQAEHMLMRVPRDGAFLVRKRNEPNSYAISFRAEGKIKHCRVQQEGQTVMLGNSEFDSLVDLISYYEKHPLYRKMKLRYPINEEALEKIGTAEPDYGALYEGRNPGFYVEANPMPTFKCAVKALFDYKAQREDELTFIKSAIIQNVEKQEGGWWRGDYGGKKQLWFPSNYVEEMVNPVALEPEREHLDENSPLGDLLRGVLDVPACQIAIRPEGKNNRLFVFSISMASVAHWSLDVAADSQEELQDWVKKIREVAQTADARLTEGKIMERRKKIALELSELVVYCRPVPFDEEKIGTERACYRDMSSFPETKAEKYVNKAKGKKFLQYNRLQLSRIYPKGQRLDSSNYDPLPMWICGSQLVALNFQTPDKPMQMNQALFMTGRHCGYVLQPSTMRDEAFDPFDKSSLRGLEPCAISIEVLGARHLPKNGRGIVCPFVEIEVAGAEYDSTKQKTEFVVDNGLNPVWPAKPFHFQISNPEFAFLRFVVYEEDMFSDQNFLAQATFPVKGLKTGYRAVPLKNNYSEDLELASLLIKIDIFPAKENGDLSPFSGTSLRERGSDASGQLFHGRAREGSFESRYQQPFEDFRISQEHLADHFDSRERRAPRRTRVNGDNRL
# Chain of Caspase-7 (P55210 24-198 limits assumed): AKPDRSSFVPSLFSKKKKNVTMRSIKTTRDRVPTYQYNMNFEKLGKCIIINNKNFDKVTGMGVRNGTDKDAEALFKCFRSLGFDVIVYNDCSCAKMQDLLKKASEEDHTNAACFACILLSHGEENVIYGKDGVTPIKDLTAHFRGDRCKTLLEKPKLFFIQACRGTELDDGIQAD
# Chain of Caspase-7 (P55210 207-303 limits assumed): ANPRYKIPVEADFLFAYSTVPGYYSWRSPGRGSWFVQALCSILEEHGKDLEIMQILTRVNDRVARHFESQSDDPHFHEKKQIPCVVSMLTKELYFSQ
# Chain of DNA dC->dU-editing enzyme APOBEC-3G (Q9HC16 whole entry): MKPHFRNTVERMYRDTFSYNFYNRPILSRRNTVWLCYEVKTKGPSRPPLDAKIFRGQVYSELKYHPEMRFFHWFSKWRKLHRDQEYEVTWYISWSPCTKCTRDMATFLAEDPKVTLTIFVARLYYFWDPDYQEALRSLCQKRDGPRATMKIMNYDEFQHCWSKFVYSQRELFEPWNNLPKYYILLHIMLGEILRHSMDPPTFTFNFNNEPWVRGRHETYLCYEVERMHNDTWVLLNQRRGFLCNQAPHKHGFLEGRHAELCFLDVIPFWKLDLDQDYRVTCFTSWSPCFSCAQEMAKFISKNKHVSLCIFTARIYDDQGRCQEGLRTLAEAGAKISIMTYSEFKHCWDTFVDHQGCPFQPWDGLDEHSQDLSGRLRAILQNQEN
# Chain of DNA dC->dU-editing enzyme APOBEC-3A (P31941 whole entry): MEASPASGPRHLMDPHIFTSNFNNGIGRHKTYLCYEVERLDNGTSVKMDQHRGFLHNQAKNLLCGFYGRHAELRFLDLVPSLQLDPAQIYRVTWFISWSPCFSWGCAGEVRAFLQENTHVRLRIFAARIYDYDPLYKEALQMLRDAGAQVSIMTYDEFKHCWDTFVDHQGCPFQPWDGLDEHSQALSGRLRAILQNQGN
compound,measurement,setting,value
FC(F)(F)C1=Nc2cccc3cccc(c23)N1,IC50,[1],12.1 µM (active)
same,IC50,[2],56.6 µM (inactive)
same,IC50,[3],102 µM (inactive)
same,CC50,[4],11.5 µM (active)
same,IC50,Beta-galactosidase,> 66.6 µM (inactive)
same,IC50,[5],23.8 µM (inactive)
Cc1ccc(C2Nc3ccc4ccccc4c3C3=C2C(=O)CC(C)(C)C3)o1 (stereo not given),EC50,Caspase-3,> 85.3 µM (inactive)
same,EC50,Caspase-7,> 85.3 µM (inactive)
CCOc1ccc2nc3cc(N=Nc4ccc(N)nc4N)ccc3c(N)c2c1,IC50,"Troponin, cardiac muscle",12.7 µM (inactive)
same,AC50,[6],> 20 µM (inactive)
Cc1ccc(S(=O)(=O)NCc2ccc(C(=O)NCCN(Cc3ccccc3)C(C)(C)C)cc2)cc1,IC50,[7],0.0287 µM (active)
same,IC50,Mu-type opioid receptor,1.39 µM (active)
same,IC50,[8],> 32 µM (inactive)
same,IC50,[9],0.0763 µM (active)
same,IC50,[10],0.0535 µM (active)
COc1ccc(OC)c(/C=N/n2c(S)nnc2-c2[nH]nc3c2CCC3)c1,IC50,[11],> 100 µM (inactive)
same,EC50,[12],> 150 µM (not active)
same,EC50,Streptococcus,> 150 µM (not active)
same,IC50,[13],2.88 µM (active)
same,EC50,Streptokinase A,18.9 µM (inconclusive)
